pIC50: −log10 of the molar value. Like-named read-outs stand apart in the source and are kept apart here.
Columns and labels:
HL-60 cells [1] = assay: HL-60 leukemia cell growth (Coulter counter or MTT assay); type: cell-based, human; settings: for cell growth, % of untreated control cells: HL-60, MTT, three days
Procedure: (§1) Cell Lines and Culture Conditions. HL-60, DLD1, and U937 cells were obtained from ATCC (Rockville, Md.). Meth A cells were from Dr. Wolfram Samlowski (University of Utah, Salt Lake City, Utah). The PPC-1 cell line was provided by Dr. Graeme Bolger (University of Alabama, Birmingham, Ala.). For the cell growth and apoptosis experiments, cells were cultured at a density of 150,000 cells/ml in RPMI-1640 with 10% fetal bovine serum at 37° C. in a 5% CO2 humidified atmosphere. Agents were added at the indicated concentrations 24 h after culture initiation. At the indicated time intervals, cells were harvested and washed twice in phosphate buffered saline (PBS) prior to processing for analysis of growth, differentiation, and apoptosis.
(§2) Cell Growth, Differentiation and Apoptosis Assays. The number of viable cells was determined using the MTT assay according to the manufacturer's protocol (Promega, Madison, Wis.) or using a Coulter counter. Briefly, a MTT assay is an analytical technique that uses the dye dimethylthiazolyl-diphenyltetrazolium (MTT) which turns from yellow to brownish-purple as it is reduced in the mitochondria of living cells. The assay is useful in calorimetric quantitation of cell viability and proliferation. In contrast, cell differentiation was evaluated using Wright and Non-Specific Esterase (NSE) staining of cells collected on microscope slides by cytospin as previously described (Magrinat, G. et al. (1992) Blood 80: 1880-1884). Apoptosis was assayed by flow cytometry and by determining DNA fragmentation using agarose gel electrophoresis as previously described (Shami, P. J. et al. (1998) Leukemia 12: 1461-1466). For the flow cytometry assay, we used the propidium iodide staining method of Nicoletti et al. (Nicoletti, I. et al. (1991) J. Immunol. Methods 139: 271-279).
For the initial screen, HL60 cells were cultured in triplicate in RPMI1640/10% FBS under standard conditions. Compounds were added to the cultures at the following concentrations: 0, 0.1, 1, 10, and 100 micromolar (uM). Three days after addition of the compounds cell growth was determined either using a Coulter counter or using the MTT assay.
The antiproliferative effects in the human AML (Acute Myeloid Leukemia) cell lines, HL-60 (myeloid leukemia) and U937 (monoblastic leukemia) cells were treated with JS-K for a period of 3 days, upon which cell growth was evaluated using a Coulter counter (CITY, STATE). JS-K was added to HL-60 cells at 0, 0.25, 0.5, 0.75, and 1.0 μM concentrations. […] Similar results were obtained in U937 cells under similar conditions.

HL-60 cells [2] = assay: Systemic leukemia model: NOD/SCID mice injected intravenously with HL-60 cells; type: in vivo
Procedure: A second experiment was conducted with NOD/SCID mice injected intravenously with HL-60 cells. Control mice appeared to develop systemic disease as evidenced by large abdominal lymph nodes and leukemia cell engraftment in the liver, spleen and bone marrow. Treated mice were administered 1 μmol/kg intravenous JS-K for three to four weeks beginning one day after inoculation. Control mice were treated with vehicle. A human-specific anti-CD15 antibody was utilized in flow cytometric analysis to identify the leukemic cells. […] Additionally, the number and size of enlarged abdominal lymph nodes appeared to be smaller in these animals.

DLD-1 = DLD-1 solid tumor cell growth; type: cell-based
Procedure: as §1
Cell Growth, Differentiation and Apoptosis Assays. The number of viable cells was determined using the MTT assay according to the manufacturer's protocol (Promega, Madison, Wis.) or using a Coulter counter. […] The assay is useful in calorimetric quantitation of cell viability and proliferation. In contrast, cell differentiation was evaluated using Wright and Non-Specific Esterase (NSE) staining of cells collected on microscope slides by cytospin as previously described (Magrinat, G. et al. (1992) Blood 80: 1880-1884). […]

HL-60 cells [3] = assay: HL-60 cell differentiation (Wright and non-specific esterase staining); type: cell-based, human; settings: 0.5 uM, 3-5 days
Procedure: as §2
HL-60 cells were treated with JS-K at a concentration of 0.5 uM for 3-5 days. […] JS-K appears to induce cell differentiation.

[4] = NO release by chemiluminescence detection, GSH without enzyme; type: physicochemical
Procedure: Measurement of NO Release. Chemiluminescence detection and quantification of NO evolving from the reactions of JS-K were conducted using an NO-specific Thermal Energy Analyzer (Model 502A, Thermedics, Analytical Instrument Division, Waltham, Mass.) essentially as previously described (Keefer, L. K. et al. (1996) Methods Enzymol. 268: 281-293). Briefly, pH 7.4 phosphate buffer containing 1 mM GSH was sparged with inert gas until a steady detector response was established. Where indicated, GSTs were added to a final concentration of 1.67 ug of enzyme/ml. […] The resulting curve was integrated to quantify the amount of NO released/mole of compound.
These reactions led to NO generation as predicted as indicated by purging gases from the solution as they formed into an NO-specific chemiluminescence detector. […] In the absence of enzyme, NO release began immediately upon adding GSH, increasing in rate until plateauing at 8 min and integrating to a total of 1.1 mol of NO per mol of JS-K within 43 min of mixing.

[5] = 1 μmol/kg intravenous for three to four weeks, versus controls

## CCOC(=O)N1CCN(/[N+]([O-])=N/Oc2ccc([N+](=O)[O-])cc2[N+](=O)[O-])CC1 [JS-K, O^2-(2,4-dinitrophenyl) 1-[(4-ethoxycarbonyl)piperazin-1-yl]diazen-1-ium-1,2-diolate]
HL-60 cells [1]; HL-60, 3 days, Coulter counter, mean of 3 studies, read-out: IC50, cell growth
  pIC50: 6.66
HL-60 cells [1]; 0.75 uM
  cell growth, % of untreated control cells: 28+/−0.79%
HL-60 cells [1]; 0.75 uM JS-K together with 50 uM C-VAD-FMK
  cell growth, % of untreated control cells: 79+/−2.4%
HL-60 cells [1]; HL-60, initial screen, at three days, read-out: 50% growth inhibitory concentration (IC50)
  pIC50: 6.66
HL-60 cells [1]; HL-60, pretreatment 2-6 h with NAC
  JS-K-induced growth inhibition after NAC pretreatment: prevented the JS-K-induced growth inhibition
HL-60 cells [1]; HL-60, pretreatment with BSO for 2-6 h
  JS-K-induced growth inhibition after BSO pretreatment: did not appear to prevent the JS-K-induced growth inhibition
HL-60 cells [1]; HL-60, pretreatment with BSO for 24 h
  JS-K-induced growth inhibition after BSO pretreatment: appeared to enhance the effects
HL-60 cells [1]; HL-60 assay system, comparison with chemotherapeutic agents, read-out: IC50, growth inhibition
  pIC50: 6.30
HL-60 cells [2]; 1 μmol/kg intravenous
  colonies from cultured bone marrow in human hematopoietic cell-selective semi-solid medium: few if any colonies of cancerous cells
HL-60 cells [2]; [5]
  leukemic cell engraftment (anti-CD15 flow cytometry): decreased leukemic cell engraftment in the bone marrow and liver
  number and size of enlarged abdominal lymph nodes: smaller
HL-60 cells [2]; three to four weeks after inoculation
  treated mice with almost no evidence of disease: Two of the five
DLD-1
  IC50 relative to leukemia lines: an order of magnitude greater than those for the two leukemia lines
HL-60 cells [3]
  morphology by Wright stain: morphologic changes consistent with a monocytic phenotype
HL-60 cells [3]; from 1
  percentage of HL-60 cells expressing NSE: 40%
[4]; 1 mM GSH, no enzyme
  time at which NO release rate plateaued: 8 min
[4]; 1 mM GSH, pH 7.4 phosphate, 0.67 uM JS-K, no enzyme, within 43 min of mixing
  total NO released: 1.1 mol of NO per mol of JS-K
[4]; pH 7.4 phosphate/0.67 uM JS-K solution
  NO detection without GSH: did not appear to be detected until 1 mM GSH was added
